Source: publication PMC12062363, “Phytochemical analysis and neuroprotective potential of Achillea santolina L. fractions” (Scientific Reports, 2025)

What was measured:
[1] = system: cerebral cortex and hippocampus of MSG-treated rats; experiment: Brain histopathology (H&E) in MSG-induced neurotoxicity in rats; assay type: in vivo, Wistar rats; details: standard 30 mg/kg orally, 14 days
Experimental: One day post the last dose, rats were anesthetized using ketamine 90 mg i.p and Blood was drawn from the Orbital sinus[22] followed by euthanizing of all rats[22]. […] The whole brains were expunged, washed with cold saline, wiped with filter paper, and split into two portions(hemispheres): one hemisphere was used for histopathological examinations following formalin fixation, however the other hemisphere was snap-frozen in liquid nitrogen and kept at − 80 °C to be used for biochemical assessment (MDA, GSH and TNF-α) and for RNA extraction. Samples were assayed in triplicates[2].
Brain specimens were preserved in 10% neutral buffered formalin followed by processing in increasing concentrations of ethanol and xylene. […]

[2] = system: Tumor necrosis factor alpha; experiment: TNF-α immunohistochemistry in cerebral cortex, MSG-induced neurotoxicity in rats; assay type: in vivo, Wistar rats; details: standard 30 mg/kg orally, 14 days
Experimental: Sixty-three rats were randomly allocated into nine experimental groups (n = 7): Control Group; served as negative control that received distilled water (DW) at the volume of 1 ml/rat orally via an intragastric tube once a day for 14 days. MSG Group, served as control positive where rats received DW at the volume of 0.5 mL/rats orally + 2 g/kg weight MSG dissolved in normal saline at the volume of 0.5 mL/rats orally via an intragastric tube once a day for 14 days[21]. Treated groups received MSG same way as MSG group along with various treatments as following: AS 200, 400 Groups; received Achillea santolina methanolic extract at doses of 200, 400 mg/kg, respectively. MF 200,400; received methylene chloride fraction of Achillea santolina extract with the same two doses and volume suspended in DW, BF 200, 400 received butanol fraction of Achillea santolina extract with the same two doses and volume suspended in DW, and standard group (Std): received Dextromethorphan 30 mg/kg at the volume of 0.5 mL/rats orally.
Tumor necrosis factor alpha was detected in paraffin embedded tissue by immunoperoxidase technique. Briefly, tissue sections were deparaffinized and then incubated in citrate buffer PH 6 for antigen retrieval. […] Area percent of positive staining was measured by Image J software in 3 sections/ group at 200X magnification.

5-LOX = molecular target: T1, 5-LOX (Homo sapiens, UniProt P09917); experiment: In vitro lipoxygenase (5-LOX) inhibitory activity; assay type: biochemical; details: three replicates
T1 sequence (P09917 1-674): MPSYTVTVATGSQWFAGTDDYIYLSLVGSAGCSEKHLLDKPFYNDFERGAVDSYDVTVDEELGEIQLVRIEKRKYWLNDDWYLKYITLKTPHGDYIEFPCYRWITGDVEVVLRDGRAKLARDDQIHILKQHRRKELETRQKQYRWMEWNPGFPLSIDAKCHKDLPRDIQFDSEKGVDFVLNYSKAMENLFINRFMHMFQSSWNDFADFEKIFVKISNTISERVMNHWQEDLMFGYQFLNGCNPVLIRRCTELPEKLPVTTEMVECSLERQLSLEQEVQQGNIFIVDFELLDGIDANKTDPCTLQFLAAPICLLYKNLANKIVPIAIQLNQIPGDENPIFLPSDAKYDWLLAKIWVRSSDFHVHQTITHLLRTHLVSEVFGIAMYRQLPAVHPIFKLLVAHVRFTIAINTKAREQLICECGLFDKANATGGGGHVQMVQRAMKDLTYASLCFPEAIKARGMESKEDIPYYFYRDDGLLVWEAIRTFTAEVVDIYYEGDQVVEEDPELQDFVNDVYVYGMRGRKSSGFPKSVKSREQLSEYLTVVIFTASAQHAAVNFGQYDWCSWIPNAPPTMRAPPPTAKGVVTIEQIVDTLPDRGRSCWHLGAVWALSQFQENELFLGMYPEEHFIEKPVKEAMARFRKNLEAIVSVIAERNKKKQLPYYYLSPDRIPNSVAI
Experimental: All in vitro determinations were performed in triplicate and reported as mean ± standard deviation. The IC50 values were determined by transforming the concentrations to logarithmic form and applying a non-linear regression equation for inhibitors (log inhibitor) versus the normalized response-variable slope equation. […] All figures and statistical analyses were generated with GraphPad Prism version 8.0® for Windows (GraphPad Software, San Diego, California USA).
The 5-LOX inhibitory activity was determined according to a previous method ^7. […] The IC50 of each tested sample was calculated.

COX-2 enzyme = molecular target: T2, COX-2 enzyme (Homo sapiens, UniProt P35354); experiment: biochemical; assay type: biochemical; details: three replicates
T2 sequence (P35354 18-604): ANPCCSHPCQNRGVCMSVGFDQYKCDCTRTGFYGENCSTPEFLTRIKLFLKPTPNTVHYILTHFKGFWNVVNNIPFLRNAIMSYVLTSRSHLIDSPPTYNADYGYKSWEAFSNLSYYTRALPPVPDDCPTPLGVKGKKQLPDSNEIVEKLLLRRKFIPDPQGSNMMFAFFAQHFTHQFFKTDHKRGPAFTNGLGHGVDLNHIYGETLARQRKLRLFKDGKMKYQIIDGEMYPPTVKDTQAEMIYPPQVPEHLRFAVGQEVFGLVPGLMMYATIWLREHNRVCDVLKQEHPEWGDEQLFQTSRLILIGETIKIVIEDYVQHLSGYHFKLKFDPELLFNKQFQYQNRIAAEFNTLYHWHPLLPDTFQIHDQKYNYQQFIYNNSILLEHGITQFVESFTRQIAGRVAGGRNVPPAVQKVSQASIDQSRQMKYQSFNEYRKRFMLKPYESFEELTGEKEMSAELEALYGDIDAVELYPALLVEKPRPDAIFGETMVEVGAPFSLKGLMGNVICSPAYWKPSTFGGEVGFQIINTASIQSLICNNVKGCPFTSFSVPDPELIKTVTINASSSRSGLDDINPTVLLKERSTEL
Experimental: All in vitro determinations were performed in triplicate and reported as mean ± standard deviation. The IC50 values were determined by transforming the concentrations to logarithmic form and applying a non-linear regression equation for inhibitors (log inhibitor) versus the normalized response-variable slope equation. In vitro studies were analyzed using one-way ANOVA and Tukey’s test, with p values under < 0.05 regarded as significant. […] All figures and statistical analyses were generated with GraphPad Prism version 8.0® for Windows (GraphPad Software, San Diego, California USA).
The inhibitory activity of the tested samples against COX-2 enzyme was determined colorimetrically ^6. Celecoxib was used as a reference drug.

## COc1ccc2c(c1)[C@]13CCCC[C@@H]1[C@H](C2)N(C)CC3 [dextromethorphan, Dextromethorphan]
[1]
  neuronal degeneration and gliosis, cerebral cortex: mild
  neuronal degeneration and gliosis, hippocampus: mild
[2]
  TNF-α expression in cerebral cortex (immunohistochemistry): weak

## O=c1c(O[C@@H]2O[C@H](CO)[C@@H](O)[C@H](O)[C@H]2O)c(-c2ccc(O)cc2)oc2cc(O)cc(O)c12 [Kaempferol-3-O-glucoside, Kaempferol 3-O-β-glucopyranoside]
5-LOX; read-out: 5-LOX inhibitory potential IC50
  IC50: 6.28 ± 0.16 µM

## O=c1cc(-c2ccc(O)c(O)c2)oc2cc(O)cc(O)c12 [Luteolin]
COX-2 enzyme; read-out: COX-2 inhibitory activity IC50
  IC50: 12.04 ± 0.08 µM

## O=c1cc(-c2ccc(O)cc2)oc2cc(O)c([C@@H]3O[C@H](CO)[C@@H](O)[C@H](O)[C@H]3O)c(O)c12 [Isovitexin, Apigenin 6-C-β-glucopyranoside]
COX-2 enzyme
  COX-2 inhibitory activity IC50: most powerful
5-LOX
  5-LOX inhibitory potential IC50: highest inhibitory potential
